The target in this experiment is T1, thrombin (THR) (Homo sapiens, UniProt P00734).
T1 construct: gene F2
As to the kind of experiment: capillary electrophoresis immobilized enzyme microreactor, S-2238; percent inhibition at […]. The conditions noted are these: read-out: Inhibition percentage (%). The format is biochemical.

For orientation: inhibition means the relative decrease from the control value, in per cent. In the case of `CCCCC1OC(=O)C2=C1CCC=C2` (centres unmarked) [a, Senkyunolide A], the inhibition at 500 µM was 41.9 ± 1.84%. To `CCC/C=C1\OC(=O)C2=C1CCC=C2` [d, Z-ligustilide] belongs 36.9 ± 2.37%.

The values above are taken from PMC7457533, “Characterization of thrombin/factor Xa inhibitors in Rhizoma Chuanxiong through UPLC-MS-based multivariate statistical analysis” (Chinese Medicine, 2020).
